Test system: SARS-COV-2 Beta variant
Assay: microbe, parasite or virus in culture
Type: cell-based, Human coronavirus SARS-COV-2 Beta variant
Conditions: for IC50: Severe acute respiratory syndrome coronavirus 2, Vero C1008

COc1cccc(Cn2c(NCCO)nc3c2c(=O)n(C)c(=O)n3C)c1 [IMB-C5] was tested, and the “inhibitory activity against SARS-COV-2 (in words)” value was “had an inhibitory activity against the SARS-COV-2 Beta variant” and the IC50 was 34.8 µM.
CCC(CC)COC(=O)[C@H](C)N[P@](=O)(OC[C@H]1O[C@@](C#N)(c2ccc3c(N)ncnn23)[C@H](O)[C@@H]1O)Oc1ccccc1 [Remdesivir, reference compound] was tested, and the IC50 was 0.73 µM.
